pIC50: −log10 of the molar value. Activity calls are given as the source filed them. No cut-off for these calls is given here.
Columns and labels:
CYP2A6 = target: T1, CYP2A6 (Homo sapiens, UniProt P11509); assay: Inhibition of CYP2A6 in human liver microsomes using coumarin as substrate at 10 uM preincubated for 5 min followed by NADPH addition measured after 120 mins by LC-MS/MS analysis relative to control; format: ADME, Microsome; conditions: probe coumarin, time 125 min
T1 sequence (P11509 whole entry): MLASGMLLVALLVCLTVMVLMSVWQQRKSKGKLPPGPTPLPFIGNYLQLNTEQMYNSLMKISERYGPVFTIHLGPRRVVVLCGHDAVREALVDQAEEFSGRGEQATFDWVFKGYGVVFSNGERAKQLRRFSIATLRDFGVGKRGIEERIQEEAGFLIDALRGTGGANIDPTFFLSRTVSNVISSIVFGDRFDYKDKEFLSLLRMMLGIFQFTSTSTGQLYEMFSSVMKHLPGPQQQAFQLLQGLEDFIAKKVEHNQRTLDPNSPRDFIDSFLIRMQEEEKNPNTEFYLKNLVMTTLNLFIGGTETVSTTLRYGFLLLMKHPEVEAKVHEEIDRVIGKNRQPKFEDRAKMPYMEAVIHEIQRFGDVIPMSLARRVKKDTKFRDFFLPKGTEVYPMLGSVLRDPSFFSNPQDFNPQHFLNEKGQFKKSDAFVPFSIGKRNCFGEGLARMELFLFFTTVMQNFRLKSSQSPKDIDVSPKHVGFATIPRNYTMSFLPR

Rattus norvegicus [1] = assay: Neuroprotective activity in MCAO-induced brain damage Sprague-Dawley rat model assessed as reduction in brain infarction size administered intravenously immediately after arterial occlusion measured after 24 hrs by TTC staining based analysis; format: functional; conditions: route iv
Rattus norvegicus [2] = assay: Anti-platelet aggregation in Sprague-Dawley rat assessed as inhibition of ADP-induced platelet aggregation at 10 mg/kg, po measured for 15 mins in presence of 5 uM ADP by cell counter analysis relative to control; format: functional; conditions: 0.25 h
[3] = MRT (0 to infinity) male Sprague-Dawley rat at 10 mg/kg, iv measured up to 24 hrs by LC-MS/MS analysis; format: ADME, organism-based; conditions: in vivo
[4] = Protein binding in rat plasma at 10 uM incubated for 12 hrs by equilibrium dialysis method; format: ADME, cell-free; conditions: read-out: PPB (converted)
[5] = Cmax male Sprague-Dawley rat at 10 mg/kg, po measured up to 24 hrs by LC-MS/MS analysis; format: ADME, organism-based; conditions: in vivo
[6] = Metabolic stability in human liver microsomes assessed as parent compound remaining at 1 uM measured after 3 hrs in presence of NADPH by LC-MS/MS analysis; format: ADME, Microsome; conditions: read-out: Stability
Rattus norvegicus [7] = assay: Anti-platelet aggregation in Sprague-Dawley rat assessed as reduction in ADP-induced bleeding loss at 10 mg/kg, po measured for 15 mins in presence of 10 uM ADP; format: functional, organism-based
[8] = Tmax male Sprague-Dawley rat at 10 mg/kg, iv measured up to 24 hrs by LC-MS/MS analysis; format: ADME, organism-based; conditions: in vivo
Rattus norvegicus [9] = assay: Neuroprotective activity in MCAO-induced brain damage Sprague-Dawley rat model assessed as brain infarction size at 10 mg/kg, iv administered immediately after arterial occlusion measured after 24 hrs by TTC staining based analysis (reference value: 43.1 %); format: functional
CYP2E1 = CYP2E1 (Homo sapiens, UniProt P05181); assay: Inhibition of CYP2E1 in human liver microsomes using chlorzoxazone as substrate at 10 uM preincubated for 5 min followed by NADPH addition measured after 120 mins by LC-MS/MS analysis relative to control; format: ADME, Microsome; conditions: probe chlorzoxazone, time 125 min
Chain of CYP2E1 (P05181 whole entry): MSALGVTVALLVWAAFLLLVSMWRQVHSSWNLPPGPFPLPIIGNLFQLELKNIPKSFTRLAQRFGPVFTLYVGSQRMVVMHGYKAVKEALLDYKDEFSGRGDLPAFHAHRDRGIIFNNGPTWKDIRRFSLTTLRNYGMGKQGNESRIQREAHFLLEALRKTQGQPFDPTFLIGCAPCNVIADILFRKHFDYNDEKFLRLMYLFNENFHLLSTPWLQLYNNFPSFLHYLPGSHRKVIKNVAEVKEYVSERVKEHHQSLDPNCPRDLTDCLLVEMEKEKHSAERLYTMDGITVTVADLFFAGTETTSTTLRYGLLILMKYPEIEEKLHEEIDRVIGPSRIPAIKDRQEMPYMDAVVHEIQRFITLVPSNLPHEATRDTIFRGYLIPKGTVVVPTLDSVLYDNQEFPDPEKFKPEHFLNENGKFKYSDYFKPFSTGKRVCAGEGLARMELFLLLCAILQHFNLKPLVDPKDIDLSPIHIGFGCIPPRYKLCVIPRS

[10] = AUC (0 to infinity) male Sprague-Dawley rat at 10 mg/kg, iv measured up to 24 hrs by LC-MS/MS analysis; format: ADME, organism-based; conditions: in vivo
[11] = AUC in plasma of male Sprague-Dawley rat at 10 mg/kg, iv measured for 0.083 to 24 hrs by LC-MS/MS analysis; format: ADME, organism-based; conditions: time 0.083-24 hrs
Plasma [12] = assay: Anti-platelet aggregation in platelet-rich plasma of male male Sprague-Dawley rat assessed as inhibition of ADP-induced platelet aggregation preincubated for 15 mins followed by ADP addition measured up to 10 mins by Born's turbidometric method; format: functional, cell-free
[13] = Protein binding in rat brain homogenate at 10 uM incubated for 12 hrs by equilibrium dialysis method; format: ADME, tissue-based; conditions: read-out: PB (converted)
HT-22 = assay: Neuroprotective activity against H2O2-induced oxidative stress in mouse HT-22 cells assessed as cell viability at 10 uM preincubated for 2 hrs followed by H2O2 addition measured after 24 hrs by MTT assay (reference value: 55 +/- 4.6 %); format: functional; conditions: time 26 hrs, read-out: Activity
Oryctolagus cuniculus = organism: Oryctolagus cuniculus; assay: Antagonist activity at P2Y12 receptor in platelet-rich plasma of male Japanese white rabbit assessed as inhibition of VASP phosphorylation at Ser239 at 30 uM pretreated for 10 mins followed by PGE1/ADP addition measured after 10 mins by ELISA relative to control; format: cell-free; conditions: time 20.0 min
Rattus norvegicus [14] = assay: Neuroprotective activity in MCAO-induced brain damage Sprague-Dawley rat model assessed as transparent cytoplasm at 2.5 to 10 mg/kg, iv administered immediately after arterial occlusion measured after 24 hrs by H and E staining based analysis; format: functional, organism-based; conditions: dose 2.5-10 mg/kg
CYP1A2 = target: T2, CYP1A2 (Homo sapiens, UniProt P05177); assay: Inhibition of CYP1A2 in human liver microsomes using phenacetin as substrate at 10 uM preincubated for 5 min followed by NADPH addition measured after 120 mins by LC-MS/MS analysis relative to control; format: ADME, Microsome; conditions: probe phenacetin, time 125 min
T2 sequence (P05177 whole entry): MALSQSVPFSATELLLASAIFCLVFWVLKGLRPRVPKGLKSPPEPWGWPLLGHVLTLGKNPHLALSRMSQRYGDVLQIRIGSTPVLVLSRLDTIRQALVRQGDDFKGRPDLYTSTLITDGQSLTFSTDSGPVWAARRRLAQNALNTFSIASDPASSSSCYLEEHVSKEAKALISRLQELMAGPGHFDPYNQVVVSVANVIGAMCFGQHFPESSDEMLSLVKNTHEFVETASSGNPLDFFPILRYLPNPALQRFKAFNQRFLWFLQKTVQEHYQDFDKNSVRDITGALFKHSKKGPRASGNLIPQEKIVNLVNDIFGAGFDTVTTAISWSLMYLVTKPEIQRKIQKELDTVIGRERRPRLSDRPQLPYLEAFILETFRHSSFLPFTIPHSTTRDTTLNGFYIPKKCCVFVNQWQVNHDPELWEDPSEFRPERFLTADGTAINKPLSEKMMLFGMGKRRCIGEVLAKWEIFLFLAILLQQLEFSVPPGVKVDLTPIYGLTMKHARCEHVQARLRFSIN

[15] = target: P2Y purinoceptor 1 (Rattus norvegicus) (UniProt P49651); assay: Induction of thermodynamic stability of P2Y1 receptor in rat platelet-rich plasma incubated for 30 mins followed by heat exposure at 61 degreeC for 10 mins by CETSA; format: cell-free; conditions: dose <= 100.0 µM, time 40.0 min
Chain of P2Y purinoceptor 1 (Rattus norvegicus) (P49651 whole entry): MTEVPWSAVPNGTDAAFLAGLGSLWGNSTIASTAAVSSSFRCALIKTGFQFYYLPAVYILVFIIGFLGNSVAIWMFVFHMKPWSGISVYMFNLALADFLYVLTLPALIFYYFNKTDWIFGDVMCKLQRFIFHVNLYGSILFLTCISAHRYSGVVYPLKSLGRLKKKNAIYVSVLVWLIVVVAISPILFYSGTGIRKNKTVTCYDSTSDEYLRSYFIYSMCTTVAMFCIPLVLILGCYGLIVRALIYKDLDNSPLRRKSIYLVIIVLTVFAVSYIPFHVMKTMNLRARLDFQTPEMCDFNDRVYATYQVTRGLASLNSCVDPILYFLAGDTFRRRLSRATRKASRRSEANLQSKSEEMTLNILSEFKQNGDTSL

Plasma [16] = assay: Anti-platelet aggregation in platelet-rich plasma of male Japanese white rabbit assessed as inhibition of ADP-induced platelet aggregation preincubated for 15 mins followed by ADP addition measured up to 10 mins by Born's turbidometric method; format: functional, cell-free; conditions: Oryctolagus cuniculus

Row | SMILES | inhibition at 2 h, 10 µM (CYP2A6) [%] | ED50 (Rattus norvegicus [1]) [mg/kg] | inhibition in vivo at 10 mg/kg (Rattus norvegicus [2]) [%] | MRT inf [3] [min] | fraction unbound at 12 h, 10 µM [4] | remaining at 3 h, 1 µM [6] [%] | Activity (Rattus norvegicus [7]) | Tmax [8] [min] | Activity (Rattus norvegicus [9]) [%] | inhibition at 2 h, 10 µM (CYP2E1) [%] | AUC(0-inf) [10] [ng·h/mL] | AUC [11] [ng·h/mL] | pIC50 (Plasma [12]) | fraction unbound at 12 h, 10 µM [13] | viability at 10 µM (HT-22) [%] | inhibition (Oryctolagus cuniculus) [%] | Activity (Rattus norvegicus [14]) | inhibition at 2 h, 10 µM (CYP1A2) [%] | Activity [15] | pIC50 (Plasma [16]) | also measured
1 | N#Cc1cccc(Oc2nc(-c3cccc(C#N)c3)ncc2C(=O)O)c1 | -17.7 | 4.6 | 47.6 | 27.2 | 0.046 | 76.9 | Moderate_effect; Moderate Bleeding Loss Was Observed; Potency Was More Than Bptu And Ticagrelor | 4.98 | 11.1 | 36.4 | 23800 | 75200 | 5.55 | 0.046 | 94.7 | 35.9 | Active | 6.5 | Dose-dependent-effect | 5.58 | Cmax ([5]; po, 10 mg/kg, 24 h): 0.61 µg/mL
2 | N#Cc1cccc(-c2nc(C(F)F)c(C(=O)O)n2OCc2csc(N)n2)c1 | -13.5 | 8.39 | 43.2 | 7.5 | 0.074 | 92.5 | Active; No Bleeding Loss Was Observed | 4.98 | 20.9 | 50.2 | 11400 | 14000 | 5.60 | 0.092 | 90.7 | 24.5 | Active | 9 | Dose-dependent-effect | 5.73 | Cmax ([5]; male, Sprague-Dawley, read-out: Cmax): 0.48 µg/mL

From ChEMBL document CHEMBL6182910, “Design, Synthesis, and Biological Evaluation of 4-(Difluoromethyl)-1H-imidazole-5-carboxylic Acids/4-(3-Cyanophenoxy)pyrimidine-5-carboxylic Acids as P2Y1 Receptor Antagonists for Ischemic Stroke Treatment” (J Med Chem, 2025)
